{
  "source": "patent US9492454B2",
  "about": "“Use of pemirolast in the treatment of acute asthma” (RSPR PHARMA AB, priority 2014, dated 2016)",
  "key": {"[1]": {"biological_target": "hERG potassium channel (Homo sapiens, UniProt Q12809)", "sequence (Q12809 whole entry)": "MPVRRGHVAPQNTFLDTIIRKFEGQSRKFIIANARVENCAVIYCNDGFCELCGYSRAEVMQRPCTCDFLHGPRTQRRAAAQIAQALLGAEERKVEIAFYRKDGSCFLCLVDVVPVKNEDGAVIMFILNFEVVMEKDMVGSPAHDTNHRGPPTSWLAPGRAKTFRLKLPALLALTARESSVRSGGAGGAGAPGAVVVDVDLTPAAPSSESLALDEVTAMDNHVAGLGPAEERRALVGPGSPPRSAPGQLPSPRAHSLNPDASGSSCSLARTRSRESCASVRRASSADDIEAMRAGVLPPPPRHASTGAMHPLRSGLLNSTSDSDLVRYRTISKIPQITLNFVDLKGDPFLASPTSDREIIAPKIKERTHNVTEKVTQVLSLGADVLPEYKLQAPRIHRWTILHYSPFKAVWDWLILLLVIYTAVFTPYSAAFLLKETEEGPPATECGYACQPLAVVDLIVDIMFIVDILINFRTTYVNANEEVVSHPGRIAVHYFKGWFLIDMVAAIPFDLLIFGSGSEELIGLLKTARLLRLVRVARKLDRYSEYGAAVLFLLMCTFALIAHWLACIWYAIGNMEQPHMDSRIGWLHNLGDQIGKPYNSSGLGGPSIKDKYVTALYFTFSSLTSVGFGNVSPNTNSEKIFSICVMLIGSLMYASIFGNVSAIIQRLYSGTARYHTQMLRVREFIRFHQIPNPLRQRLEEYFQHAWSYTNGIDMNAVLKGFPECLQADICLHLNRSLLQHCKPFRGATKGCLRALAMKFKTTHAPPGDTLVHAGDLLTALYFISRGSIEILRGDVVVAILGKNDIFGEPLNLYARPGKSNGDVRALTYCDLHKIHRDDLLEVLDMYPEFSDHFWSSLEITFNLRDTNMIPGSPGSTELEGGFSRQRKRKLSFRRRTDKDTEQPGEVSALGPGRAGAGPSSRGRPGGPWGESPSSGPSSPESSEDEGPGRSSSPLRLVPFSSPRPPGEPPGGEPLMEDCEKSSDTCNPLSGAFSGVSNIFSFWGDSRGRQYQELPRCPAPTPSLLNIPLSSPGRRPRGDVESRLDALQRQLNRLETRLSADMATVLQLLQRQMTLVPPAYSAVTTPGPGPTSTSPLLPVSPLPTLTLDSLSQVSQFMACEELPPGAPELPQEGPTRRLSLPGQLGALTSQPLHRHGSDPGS", "method": "This study was performed by PhysioStim, France, a GLP compliant facility.\nThe effects of pemirolast on hERG currents in HEK-293 cells stably expressing the hERG potassium channel were studied using patch-clamp technique."}, "[2]": {"set-up": "species or system Beagles (dog)", "conditions": "dog, in vivo", "excerpt": "There were no major differences in kinetics between males and females."}, "[3]": {"conditions": "twice daily 50 mg doses in humans; cited from earlier work"}, "[4]": {"system": "human bronchial tissue", "assay": "Bronchodilatory effect on pre-contracted isolated human bronchi (myograph, isometric tension)", "format": "cell-based", "conditions": "for effect on bronchoconstriction induced by carbachol: carbachol 3 μM; for effect on bronchoconstriction induced by histamine: histamine 1 μM"}, "[5]": {"system": "antigen- and PAF-induced bronchoconstriction", "conditions": "pre-administration, guinea pigs in vivo; cited from earlier work"}, "[6]": {"assay": "Later pharmacokinetic studies in healthy volunteers (multiple doses)", "format": "in vivo, human", "conditions": "80, 200 and 320 mg b.i.d. for three and a half days"}, "[7]": {"system": "prostaglandin D2", "assay": "Urinary excretion of 11β-PGF2α (PGD2 metabolite, mast cell biomarker), EIA", "format": "in vivo, human", "conditions": "for baseline production of PGD2 in asthmatics without ongoing attacks: n=22-24", "method": "A secondary endpoint in the study was to analyse changes in urinary excretion of a metabolite (11β-prostaglandin (PG) F2α) of the lung mast cell mediator/biomarker prostaglandin D2. 11β-PGF2α analysis was performed in unextracted urine samples using a validated enzyme immunoassays (EIA) kit from Cayman Chemical, Ann Arbor, Mich., USA (Item no 516521). Absolute values of the mediators were expressed as nanograms 11β-PGF2α per millimole creatinine.\n• a) Withdrawal from trial visit criteria to be checked • b) Urine sampling for 11β-PGF2α analysis • c) Blood sampling for haematology and blood biochemistry • d) Vital signs, physical examination, adverse events and concomitant medication 2) Administration of IMP 3 hours (+/−10 min) before the mannitol challenge 3) Before mannitol challenge: • a) <10 min before: Urine sampling for 11β-PGF2α analysis • b) <10 min before: Blood sampling for analysis of plasma pemirolast concentration 4) Mannitol test 3 hours (+/−10 min) after IMP administration 5) After mannitol challenge: • a) Urine sampling for 11β-PGF2α, 30 minutes after mannitol challenge • b) Pregnancy test (Visit 4 only, in addition to prior to enrolment) • e) Recording of concomitant medication just before sending the patient home • f) Reporting of AEs just before sending the subject home\nProstaglandin D2 (PGD2) is released from mast cells (e.g. in the lung) and is known as a mediator of asthmatic bronchoconstriction (Hardy et al, N. Engl. J. Med., 311, 209 (1984)). Urinary levels of the PGD2 metabolite 11β-PGF2α increase acutely during asthmatic attacks, including those induced by mannitol inhalation (Brannan et al, Eur. Respir. J., 22, 491 (2003)). This PGD2 metabolite is therefore used as a biomarker for mast cell activation in asthmatics."}, "[8]": {"system": "asthma patients challenged with mannitol inhalation", "assay": "Clinical trial: mannitol challenge test in asthma patients (PD15, FEV1, safety)", "format": "in vivo, human", "conditions": "for long-term prophylactic effect on mannitol-induced asthma (mannitol PD15 at placebo visit): n=4", "method": "This study comprised male and female asthma patients (18 to 46 years of age) with a positive asthma test (as determined by a mannitol challenge test (vide infra) performed within 15 days prior to enrolment at the first screening visit, Visit 1).\nIt was a double-blind, randomized, placebo-controlled, cross-over trial assessing the efficacy of orally administered single doses of placebo and 40 mg and 400 mg of pemirolast (immediate release tablets containing pemirolast sodium hemihydrate, as well as microcrystalline cellulose, mannitol, copovidone fine, croscarmellose sodium, anhydrous colloidal silica and magnesium stearate) in patients challenged with mannitol inhalation as described below.\nThe patients were exposed to the different treatments at three separate hospital visits at least 2 (mean 6.8, median 6) days apart. The data reported in FIGS. 5 and 6 below represent the patients that received placebo treatment at the first visit (n=8) or placebo at the second visit (after 40 mg at the first visit (n=4) or after 400 mg at the first visit (n=4)).\nAll doses were administered 3 hours before initiation of the mannitol challenge test to ensure peak plasma concentrations of pemirolast when the mannitol challenge was performed (blood samples for analysing plasma concentrations of pemirolast were collected 3 hours after drug administration).\nThere were 5 visits during the trial: A screening visit (Visit 1, within 15 days before Visit 2), three visits for treatment with Investigational Medicinal Products (IMP; pemirolast 40 or 400 mg, or placebo) (Visit 2-4, spaced at least 2 days apart), and a final follow-up visit by telephone (Visit 5, at least 2, but less than 4 days after Visit 4 and within 30 days of Visit 2).\nThe primary endpoint in the study was the Provocation Dose (PD) of mannitol resulting in a 15% fall in Forced Expiratory Volume during 1 second (FEV1; values given in Litres (L)) (PD15 for mannitol), which is recognised by regulatory authorities as an acceptable method to evaluate potential efficacy of asthma drugs (European Medicines Agency. Note for Guidance on Clinical Investigation of Medicinal Products for Treatment of Asthma, 2013).\nThe mannitol challenge test (Aridol®, Pharmaxis Ltd, Frenchs Forest, Sydney Australia) was performed as follows: application of nose clip and challenge with 0 (empty capsule acting as placebo), 5, 10, 20, 40, 80, 160, 160, 160 and 160 mg of mannitol via the Halermatic (the 80 and 160 mg doses were given as multiple doses of 40 mg capsules). After inhalation, subjects were instructed to hold their breath for 5 seconds.\nAt least 2 repeatable FEV1 manoeuvres were performed 60 seconds after each dose and the highest FEV1 was used in the calculation. […]"}, "[9]": {"system": "isolated guinea pig trachea", "conditions": "trachea pre-constricted with acetylcholine, histamine, serotonin and barium chloride; cited from earlier work"}, "[10]": {"assay": "Single and multiple-dose open safety, tolerability and pharmacokinetic study of pemirolast potassium tablets, with linear Cmax extrapolation", "format": "in vivo, human", "conditions": "linear extrapolation from 42.5 mg multiple dose", "method": "This study comprised 18 healthy male subjects, 18-45 years of age, and was a single and multiple-dose, open study assessing the safety and tolerability of pemirolast potassium tablets (10 mg, Ulgixal™ tablets) with the doses 10, 30 and 50 mg (containing 8.5, 25.5 and 42.5 mg pemirolast free acid, respectively) b.i.d. (6 subjects in each dose group). The subjects received a single dose on the first day, then b.i.d. for three days and a single dose on the fifth day. The study was performed at the Berzelius Clinical Research Center AB in Linköping, Sweden. All laboratory pharmacokinetic analyses were performed by Quintiles AB, Uppsala, Sweden. Pharmacokinetic calculations were performed by Pharm Assist Sweden AB, Uppsala, Sweden. Mean Cmax data after multiple dosing are shown in and Table 1, and mean plasma concentrations over time on Day 5 are shown in FIG. 1. Based on these clinical data, Cmax predictions were made (assumption: Linear pharmacokinetics when extrapolating to higher dose levels) and are presented in Table 2."}, "[11]": {"system": "isolated tracheal muscle", "conditions": "isolated guinea pig tracheal muscle, cited from earlier work"}},
  "note": "“Also recorded” adds a separate entry of the source. Where two headings read alike, the source gives them in different places.",
  "data": [
    {"smiles": "Cc1cccn2c(=O)c(-c3nnn[nH]3)cnc12", "note": "[pemirolast potassium]", "values": [
      {"measurement": "decrease of hERG tail current amplitude", "setting": "[1]; 2.7 μg/mL", "result": 5.4, "unit": "%"},
      {"measurement": "decrease of hERG tail current amplitude", "setting": "[1]; 8 μg/mL", "result": 10.2, "unit": "%"},
      {"measurement": "decrease of hERG tail current amplitude", "setting": "[1]; 26.6 μg/mL", "result": 14.1, "unit": "%"},
      {"measurement": "decrease of hERG tail current amplitude", "setting": "[1]; 79.9 μg/mL", "result": 19.0, "unit": "%"},
      {"measurement": "safe chronic dose in dogs", "setting": "[2]", "result": 75, "unit": "mg/kg daily"}
    ]},
    {"smiles": "Cc1cccn2c(=O)c(-c3nnn[nH]3)cnc12", "note": "[pemirolast]", "values": [
      {"measurement": "direct bronchodilator activity when used clinically", "setting": "[3]", "result": "no direct bronchodilator activity"},
      {"measurement": "effect on bronchoconstriction induced by U-46619", "setting": "[4]; 10 μg/mL pemirolast, 100 nM U-46619, n=2", "result": "partially reversed"},
      {"measurement": "effect on bronchoconstriction induced by potassium chloride", "setting": "[4]; 10 μg/mL pemirolast, KCl 30 mM, n=2", "result": "no effect"},
      {"measurement": "effect on bronchoconstriction induced by carbachol", "setting": "[4]; 10 μg/mL pemirolast, n=4", "result": "no effect"},
      {"measurement": "effect on bronchoconstriction induced by histamine", "setting": "[4]; 10 μg/mL pemirolast, n=3", "result": "no effect"},
      {"measurement": "effect on bronchoconstriction induced by leukotriene D4", "setting": "[4]; 10 μg/mL pemirolast, leukotriene D4 1 nM, n=3", "result": "no effect"},
      {"measurement": "reversal of PGF2α-induced bronchoconstriction (force)", "setting": "[4]; 10 μg/ml pemirolast, PGF2α 3 μM pre-contraction, within 15 min, n=4, vehicle 6.8±3.1%", "result": "21.5±4.4", "unit": "%"},
      {"measurement": "reduction of PGF2α-induced bronchoconstriction (force)", "setting": "[4]; 110 μg/mL pemirolast (cumulative), PGF2α 3 μM pre-contraction, within 40 min, n=4, vehicle 18.6±4.9%", "result": "72.0±12.6", "unit": "%"},
      {"measurement": "effect on bronchoconstriction induced by U-46619", "setting": "[4]; 110 μg/mL pemirolast, 100 nM U-46619", "result": "partial reversal"},
      {"measurement": "effect on the response to KCl", "setting": "[4]; 110 μg/mL pemirolast, KCl 30 mM", "result": "little effect"},
      {"measurement": "effect on bronchoconstriction induced by carbachol", "setting": "[4]; 110 μg/mL pemirolast", "result": "partial reversal"},
      {"measurement": "effect on bronchoconstriction induced by histamine", "setting": "[4]; 110 μg/mL pemirolast", "result": "partial reversal"},
      {"measurement": "effect on the response to leukotriene D4", "setting": "[4]; 110 μg/mL pemirolast, leukotriene D4 1 nM", "result": "little effect"},
      {"measurement": "PAF-induced bronchoconstriction", "setting": "[5]", "result": "inhibited"},
      {"measurement": "antigen-induced bronchoconstriction", "setting": "[5]", "result": "inhibited"},
      {"measurement": "safety and tolerability", "setting": "[6]", "result": "safe and well-tolerated"},
      {"measurement": "baseline production of PGD2 in asthmatics without ongoing attacks", "setting": "[7]; 3 hours after administration of 40 mg", "result": "not"},
      {"measurement": "baseline production of PGD2 in asthmatics without ongoing attacks", "setting": "[7]; 3 hours after administration of 400 mg", "result": "significantly reduced"},
      {"measurement": "urinary levels of the PGD2 biomarker (11β-PGF2α), 400 mg versus 40 mg previous treatment", "setting": "[7]; patients treated at least 3 days before with 40 mg or 400 mg, 4+4 patients", "result": "did not differ"},
      {"measurement": "mannitol PD15", "setting": "[8]; 3 hour pre-treatment, oral single dose (pemirolast sodium hemihydrate tablets), asthma patients", "result": "increased"},
      {"measurement": "long-term prophylactic effect on mannitol-induced asthma (mannitol PD15 at placebo visit)", "setting": "[8]; placebo treatment preceded by 40 mg dose p.o.", "result": "not seen"},
      {"measurement": "long-term prophylactic effect on mannitol-induced asthma (mannitol PD15 at placebo visit)", "setting": "[8]; single 400 mg dose p.o. given at least 3 days before placebo/mannitol", "result": "resulted in a prophylactic effect; also recorded: tolerated a much higher dose of mannitol"},
      {"measurement": "adverse events, vital signs, physical examination, haematology and blood biochemistry", "setting": "[8]; single oral doses 40 mg and 400 mg, asthma patients", "result": "no serious adverse events"},
      {"measurement": "potency relative to theophylline", "setting": "[9]", "result": "one seventh"},
      {"measurement": "Predicted Cmax", "setting": "[10]; predicted for 125 mg", "result": 10.07, "unit": "µg/mL"},
      {"measurement": "Predicted Cmax", "setting": "[10]; predicted for 200 mg", "result": 16.12, "unit": "µg/mL"},
      {"measurement": "Predicted Cmax", "setting": "[10]; predicted for 400 mg", "result": 32.23, "unit": "µg/mL"},
      {"measurement": "effect on bronchoconstriction", "setting": "[11]; much higher concentrations than 10 μg/mL", "result": "some effect"},
      {"measurement": "effect on bronchoconstriction induced by PGF2α", "setting": "[11]; pre-treatment at 10 μg/mL", "result": "no effect"},
      {"measurement": "effect on bronchoconstriction induced by leukotriene D4", "setting": "[11]; pre-treatment at 10 μg/mL", "result": "no effect"}
    ]}
  ]
}
